Measurements reported in patent publication US12637428B2, “Isoquinoline derivatives as SIK2 inhibitors” (Cancer Research Technology Limited, priority 2019, dated 2026).

How the values were obtained:
Assay type in all cases: biochemical
[1] = biological target: T1, Abl (Homo sapiens, UniProt P00519); experiment: Abl kinase assay, IMAP fluorescence polarization; conditions: 50 or 100 μM ATP, average
T1 construct: purchased Life Technologies
Summary of the method: (§1)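 IMAP FP format: 0.6-13 nM kinase, 100 nM FAM-peptide substrate, 50 or 100 μM ATP, Tris pH 7.2/4 mM MgCl2/0.2% BSA/2 mM DTT, 60 min RT. Compounds 0.00005-1 μM. Stop with 0.25% IMAP binding reagent (buffer A:B 85:15; 30:70 for Src).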

[2] = biological target: T2, SIK2 (Homo sapiens, UniProt Q9H0K1); experiment: SIK2 kinase assay, IMAP fluorescence polarization; conditions: 50 or 100 μM ATP, average
T2 construct: purchased Life Technologies
Summary of the method: as §1

[3] = biological target: T3, EPHA2 (Homo sapiens, UniProt P29317); experiment: EPHA2 kinase assay, IMAP fluorescence polarization; conditions: 50 or 100 μM ATP, Tris pH 8.5, average
T3 construct: purchased Life Technologies

[4] = biological target: T4, SIK1 (Homo sapiens, UniProt P57059); experiment: SIK1 kinase assay, IMAP fluorescence polarization; conditions: 50 or 100 μM ATP, average
T4 construct: purchased Life Technologies
Summary of the method: as §1

[5] = biological target: T5, SIK3 (Homo sapiens, UniProt Q9Y2K2); experiment: SIK3 kinase assay, IMAP fluorescence polarization; conditions: 50 or 100 μM ATP, average
T5 construct: purchased Life Technologies
Summary of the method: as §1

[6] = biological target: T6, Src (Homo sapiens, UniProt P12931); experiment: Src kinase assay, IMAP fluorescence polarization; conditions: 50 or 100 μM ATP, average
T6 construct: purchased Life Technologies
Summary of the method: as §1

T5 sequence (Q9Y2K2 whole entry): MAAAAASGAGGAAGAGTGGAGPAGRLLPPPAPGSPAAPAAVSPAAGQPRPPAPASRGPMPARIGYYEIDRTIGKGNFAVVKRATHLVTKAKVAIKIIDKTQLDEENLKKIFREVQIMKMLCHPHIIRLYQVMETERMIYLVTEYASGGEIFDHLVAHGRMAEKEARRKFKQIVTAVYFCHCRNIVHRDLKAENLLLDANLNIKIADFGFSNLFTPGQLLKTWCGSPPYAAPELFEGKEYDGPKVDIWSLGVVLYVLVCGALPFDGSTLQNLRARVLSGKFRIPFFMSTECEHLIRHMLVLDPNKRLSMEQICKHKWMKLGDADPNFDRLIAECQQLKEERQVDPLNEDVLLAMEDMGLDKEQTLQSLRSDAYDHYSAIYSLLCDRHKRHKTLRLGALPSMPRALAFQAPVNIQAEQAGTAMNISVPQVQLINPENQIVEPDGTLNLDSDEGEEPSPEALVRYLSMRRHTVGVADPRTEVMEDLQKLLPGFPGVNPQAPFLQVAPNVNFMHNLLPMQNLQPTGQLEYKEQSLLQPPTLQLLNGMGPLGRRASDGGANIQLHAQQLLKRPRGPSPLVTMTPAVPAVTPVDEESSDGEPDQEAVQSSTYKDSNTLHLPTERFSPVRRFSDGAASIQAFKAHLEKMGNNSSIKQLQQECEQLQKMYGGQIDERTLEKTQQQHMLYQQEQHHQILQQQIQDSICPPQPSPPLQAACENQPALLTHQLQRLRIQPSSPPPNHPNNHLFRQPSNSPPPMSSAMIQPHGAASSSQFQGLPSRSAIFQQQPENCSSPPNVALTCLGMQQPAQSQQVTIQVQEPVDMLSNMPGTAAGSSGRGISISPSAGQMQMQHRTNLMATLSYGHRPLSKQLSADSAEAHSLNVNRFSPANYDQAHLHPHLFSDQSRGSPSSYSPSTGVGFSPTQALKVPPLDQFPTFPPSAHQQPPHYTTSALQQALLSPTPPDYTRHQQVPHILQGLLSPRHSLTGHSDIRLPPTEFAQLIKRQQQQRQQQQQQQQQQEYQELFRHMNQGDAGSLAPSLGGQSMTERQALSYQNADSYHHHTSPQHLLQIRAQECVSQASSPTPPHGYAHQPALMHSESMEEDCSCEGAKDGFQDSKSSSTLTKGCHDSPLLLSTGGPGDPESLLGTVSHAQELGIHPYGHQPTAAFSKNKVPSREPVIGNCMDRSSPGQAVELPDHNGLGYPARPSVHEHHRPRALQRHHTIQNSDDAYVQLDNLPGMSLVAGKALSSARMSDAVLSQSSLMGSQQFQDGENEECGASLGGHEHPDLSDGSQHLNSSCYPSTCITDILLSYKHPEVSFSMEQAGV
T2 sequence (Q9H0K1 whole entry): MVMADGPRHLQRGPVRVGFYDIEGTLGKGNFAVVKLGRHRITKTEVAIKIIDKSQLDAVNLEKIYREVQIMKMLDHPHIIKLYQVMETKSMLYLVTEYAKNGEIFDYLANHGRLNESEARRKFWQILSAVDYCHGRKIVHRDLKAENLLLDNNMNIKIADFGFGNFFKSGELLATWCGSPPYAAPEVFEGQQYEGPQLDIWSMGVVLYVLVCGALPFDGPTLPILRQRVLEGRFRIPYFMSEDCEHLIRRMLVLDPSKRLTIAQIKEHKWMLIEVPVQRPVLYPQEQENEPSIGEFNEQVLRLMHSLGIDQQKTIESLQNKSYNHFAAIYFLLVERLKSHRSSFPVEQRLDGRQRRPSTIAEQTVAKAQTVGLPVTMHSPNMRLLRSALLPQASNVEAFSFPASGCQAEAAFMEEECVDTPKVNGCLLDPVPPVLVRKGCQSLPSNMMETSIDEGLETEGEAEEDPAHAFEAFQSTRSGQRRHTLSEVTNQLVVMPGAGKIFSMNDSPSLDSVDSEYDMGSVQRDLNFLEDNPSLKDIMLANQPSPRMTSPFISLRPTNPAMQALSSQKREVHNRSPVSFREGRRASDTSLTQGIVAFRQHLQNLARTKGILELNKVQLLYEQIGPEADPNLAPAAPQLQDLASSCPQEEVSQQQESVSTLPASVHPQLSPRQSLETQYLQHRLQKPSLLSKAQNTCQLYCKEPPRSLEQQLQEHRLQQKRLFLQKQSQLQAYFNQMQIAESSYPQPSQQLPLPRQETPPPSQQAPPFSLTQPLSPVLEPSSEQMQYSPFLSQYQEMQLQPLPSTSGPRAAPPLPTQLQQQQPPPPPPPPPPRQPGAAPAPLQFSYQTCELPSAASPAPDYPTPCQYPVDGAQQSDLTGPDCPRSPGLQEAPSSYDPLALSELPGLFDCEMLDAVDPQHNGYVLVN
T1 sequence (P00519 whole entry): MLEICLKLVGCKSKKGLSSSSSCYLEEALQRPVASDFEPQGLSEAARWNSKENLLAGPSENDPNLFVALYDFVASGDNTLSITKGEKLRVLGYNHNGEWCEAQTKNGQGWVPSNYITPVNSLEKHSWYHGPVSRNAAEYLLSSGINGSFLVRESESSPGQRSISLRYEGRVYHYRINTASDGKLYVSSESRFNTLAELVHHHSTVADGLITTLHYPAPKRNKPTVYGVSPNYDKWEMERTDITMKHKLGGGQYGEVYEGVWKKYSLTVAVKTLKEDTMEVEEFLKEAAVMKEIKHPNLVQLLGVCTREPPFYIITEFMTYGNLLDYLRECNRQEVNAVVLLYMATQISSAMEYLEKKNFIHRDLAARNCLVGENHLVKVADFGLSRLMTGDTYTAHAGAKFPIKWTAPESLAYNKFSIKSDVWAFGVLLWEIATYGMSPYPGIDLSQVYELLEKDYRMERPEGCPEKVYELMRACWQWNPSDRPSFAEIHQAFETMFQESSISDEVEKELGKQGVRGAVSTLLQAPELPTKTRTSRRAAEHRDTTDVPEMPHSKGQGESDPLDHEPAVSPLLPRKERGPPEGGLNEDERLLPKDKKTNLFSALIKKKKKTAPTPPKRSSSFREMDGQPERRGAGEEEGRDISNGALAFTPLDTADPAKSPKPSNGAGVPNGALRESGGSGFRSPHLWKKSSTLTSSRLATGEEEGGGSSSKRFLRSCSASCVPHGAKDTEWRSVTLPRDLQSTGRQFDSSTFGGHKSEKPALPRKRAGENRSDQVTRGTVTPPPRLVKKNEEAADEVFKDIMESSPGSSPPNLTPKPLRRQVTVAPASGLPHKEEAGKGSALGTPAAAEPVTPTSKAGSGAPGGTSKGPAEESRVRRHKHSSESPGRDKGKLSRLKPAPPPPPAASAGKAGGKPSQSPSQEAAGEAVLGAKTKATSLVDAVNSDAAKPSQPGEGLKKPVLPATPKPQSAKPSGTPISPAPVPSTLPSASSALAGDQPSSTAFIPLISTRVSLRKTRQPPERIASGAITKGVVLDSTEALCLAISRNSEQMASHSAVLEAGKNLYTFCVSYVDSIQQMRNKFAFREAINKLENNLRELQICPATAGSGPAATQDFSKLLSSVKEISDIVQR
T6 sequence (P12931 whole entry): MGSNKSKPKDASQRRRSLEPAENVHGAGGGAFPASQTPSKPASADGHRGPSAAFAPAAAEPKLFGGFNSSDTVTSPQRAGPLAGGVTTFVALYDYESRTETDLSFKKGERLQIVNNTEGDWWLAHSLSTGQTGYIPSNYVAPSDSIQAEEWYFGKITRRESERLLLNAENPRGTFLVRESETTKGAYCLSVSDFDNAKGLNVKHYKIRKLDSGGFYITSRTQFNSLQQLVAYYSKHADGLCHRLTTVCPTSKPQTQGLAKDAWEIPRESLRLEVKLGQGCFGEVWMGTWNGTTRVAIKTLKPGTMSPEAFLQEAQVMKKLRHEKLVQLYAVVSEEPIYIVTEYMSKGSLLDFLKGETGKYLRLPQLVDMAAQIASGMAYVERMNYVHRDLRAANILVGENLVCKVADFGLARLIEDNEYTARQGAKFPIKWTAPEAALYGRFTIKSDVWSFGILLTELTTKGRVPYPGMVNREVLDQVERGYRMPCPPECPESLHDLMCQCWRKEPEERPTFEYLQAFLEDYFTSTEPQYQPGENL
T3 sequence (P29317 24-976): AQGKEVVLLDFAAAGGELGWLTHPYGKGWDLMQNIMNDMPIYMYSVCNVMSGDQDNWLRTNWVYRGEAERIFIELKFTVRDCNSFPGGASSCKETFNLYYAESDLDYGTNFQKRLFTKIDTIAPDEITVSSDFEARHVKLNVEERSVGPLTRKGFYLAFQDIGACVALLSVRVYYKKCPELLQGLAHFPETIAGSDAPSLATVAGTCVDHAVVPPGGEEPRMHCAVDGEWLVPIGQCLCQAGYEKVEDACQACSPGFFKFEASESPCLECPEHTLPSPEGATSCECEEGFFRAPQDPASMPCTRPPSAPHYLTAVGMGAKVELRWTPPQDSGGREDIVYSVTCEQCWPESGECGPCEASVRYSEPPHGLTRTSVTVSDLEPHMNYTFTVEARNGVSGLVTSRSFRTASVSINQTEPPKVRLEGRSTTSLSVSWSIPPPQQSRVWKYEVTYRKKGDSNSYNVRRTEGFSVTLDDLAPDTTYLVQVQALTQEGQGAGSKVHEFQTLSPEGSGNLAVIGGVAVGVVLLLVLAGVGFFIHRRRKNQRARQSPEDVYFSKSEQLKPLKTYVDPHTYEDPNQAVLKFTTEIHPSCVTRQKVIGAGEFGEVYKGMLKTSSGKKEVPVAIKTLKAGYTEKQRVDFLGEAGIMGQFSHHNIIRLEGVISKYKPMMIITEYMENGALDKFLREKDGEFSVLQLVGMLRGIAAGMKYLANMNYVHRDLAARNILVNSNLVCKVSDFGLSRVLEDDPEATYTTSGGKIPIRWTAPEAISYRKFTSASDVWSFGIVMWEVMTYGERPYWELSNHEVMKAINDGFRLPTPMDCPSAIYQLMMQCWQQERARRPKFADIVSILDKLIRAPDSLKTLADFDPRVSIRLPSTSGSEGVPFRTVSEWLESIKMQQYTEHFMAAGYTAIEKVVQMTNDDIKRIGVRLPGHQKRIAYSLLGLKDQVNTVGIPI

| SMILES | Ki [1] [nM] | Ki [2] [nM] | Ki [3] [nM] | Ki [4] [nM] | Ki [5] [nM] | Ki [6] [nM] |
| --- | --- | --- | --- | --- | --- | --- |
| CN[C@@H]1CCCN(c2cc(-c3c(C)cccc3F)cc3cnc(N)cc23)C1 [Example 19, 7-(2-fluoro-6-methyl-phenyl)-5-[(3R)-3-(methylamino)-1-piperidyl]isoquinolin-3-amine] | 24.6 | 0.113 | > 1000 | 0.476 | 4.45 | 306 |
| Cc1cccc(F)c1-c1cc(N2CC(N(C)C)C2)c2cc(N)ncc2c1 [Example 79, 5-[3-(dimethylamino)azetidin-1-yl]-7-(2-fluoro-6-methyl-phenyl)isoquinolin-3-amine] | 12.7 | 0.101 | 84.1 | 0.747 | 2.24 | 106 |
| Cc1cccc(F)c1-c1cc(C(=O)NC2CCN(C)C2)c2cc(N)ncc2c1 (stereo not drawn) [Example 99, 3-Amino-7-(2-fluoro-6-methyl-phenyl)-N-(1-methylpyrrolidin-3-yl)isoquinoline-5-carboxamide] | 3.04 | 2.91 | 29.2 | 5.62 | 38.8 | 32.9 |
| CNc1cc2c(NC3CCNCC3)cc(-c3c(C)cccc3F)cc2cn1 [Example 27, 7-(2-Fluoro-6-methyl-phenyl)-N3-methyl-N5-(4-piperidyl)isoquinoline-3,5-diamine] | 22.9 | 0.0748 | 216 | 0.429 | 0.349 | 218 |
| Cc1cccc(F)c1-c1cc(NC2CCNCC2)c2cc(NC(C)C)ncc2c1 [Example 28, 7-(2-fluoro-6-methyl-phenyl)-N3-isopropyl-N5-(4-piperidyl)isoquinoline-3,5-diamine] | 14.8 | 0.155 | > 1000 | 1.39 | 0.504 | 413 |
| Cc1cccc(F)c1-c1cc(NC[C@H]2CCCN2C)c2cc(N)ncc2c1 [Example 73, 7-(2-fluoro-6-methyl-phenyl)-N5-[[(2R)-1-methylpyrrolidin-2-yl]methyl] isoquinoline-3,5-diamine] | 6.45 | 0.0693 | 251 | 0.498 | 0.528 | 98.1 |
| Cc1cccc(F)c1-c1cc(NC[C@@H]2CCCCN2)c2cc(N)ncc2c1 [Example 14, 7-(2-fluoro-6-methyl-phenyl)-N5-[[(2S)-2-piperidyl]methyl]isoquinoline-3,5-diamine] | 8.01 | 0.0969 | 59.5 | 0.601 | 2.43 | 67.8 |
| Cc1cccc(F)c1-c1cc(NC2CCN(C)CC2)c2cc(N)ncc2c1 [Example 54, 7-(2-Fluoro-6-methyl-phenyl)-N5-(1-methyl-4-piperidyl)isoquinoline-3,5-diamine] | 16.1 | 0.0466 | 195 | 0.418 | 0.883 | 103 |
| Cc1cccc(F)c1-c1cc(NC2CNC2)c2ccncc2c1 [Example 51, N-(azetidin-3-yl)-7-(2-fluoro-6-methyl-phenyl)isoquinolin-5-amine] | 24.9 | 0.532 | 242 | 2.81 | 3.16 | 220 |
| Cc1cccc(F)c1-c1cc(NC2CN(C)C2)c2ccncc2c1 [Example 65, 7-(2-Fluoro-6-methyl-phenyl)-N-(1-methylazetidin-3-yl)isoquinolin-5-amine] | 35.9 | 0.716 | 264 | 3.73 | 4.57 | 285 |
| CNC[C@H]1CCCN(c2cc(-c3c(C)cccc3F)cc3cnc(N)cc23)C1 [Example 21, 7-(2-fluoro-6-methyl-phenyl)-5-[(3R)-3-(methylamino-methyl)-1-piperidyl]isoquinolin-3-amine] | 10.5 | 0.274 | 41.5 | 0.594 | 9.36 | 50.4 |
| Cc1cccc(F)c1-c1cc(NC2CCN(C)CC2)c2ccncc2n1 [Example 122, 2-(2-Fluoro-6-methyl-phenyl)-N-(1-methyl-4-piperidyl)-1,7-naphthyridin-4-amine] | > 10000 | 121 | > 10000 | 266 | 531 | > 10000 |
| Cc1cccc(F)c1-c1cc(NC2CCN(C)CC2)c2nc(N)ncc2c1 [Example 132, 6-(2-fluoro-6-methyl-phenyl)-N8-(1-methyl-4-piperidyl)quinazoline-2,8-diamine] | 8.63 | 0.0399 | 58.8 | 0.317 | 0.45 | 46.3 |
| CC(=O)Nc1cc2c(NC3CCN(C)CC3)cc(-c3c(C)cccc3F)cc2cn1 [Example 115, N-[7-(2-Fluoro-6-methyl-phenyl)-5-[(1-methyl-4-piperidyl)amino]-3-isoquinolyl]acetamide] | 0.243 | 0.0274 | 1.08 | 0.183 | 0.301 | 0.974 |
| Cc1cccc(F)c1-c1cc(NC[C@H]2CCN(C)C2)c2cc(N)ncc2c1 [Example 75, 7-(2-fluoro-6-methyl-phenyl)-N5-[[(3R)-1-methylpyrrolidin-3-yl]methyl] isoquinoline-3,5-diamine] | 10.3 | 0.19 | 120 | 0.618 | 2 | 45.2 |
| CN[C@H]1CCCN(c2cc(-c3c(C)cccc3F)cc3cnc(N)cc23)C1 [Example 18, 7-(2-fluoro-6-methyl-phenyl)-5-[(3S)-3-(methylamino)-1-piperidyl]isoquinolin-3-amine] | 1.88 | 0.196 | 100 | 0.656 | 7.09 | 53.4 |
| Cc1cccc(F)c1-c1cc(C(=O)NC2CCNC2)c2cc(N)ncc2c1 (stereo not drawn) [Example 53, 3-amino-7-(2-fluoro-6-methyl-phenyl)-N-pyrrolidin-3-yl-isoquinoline-5-carboxamide] | 5530 | 2770 | > 100000 | 12900 | > 100000 | > 100000 |
| Cc1cccc(F)c1-c1cc(OC2CCN(C)CC2)c2cc(N)ncc2c1 [Example 101, 7-(2-Fluoro-6-methyl-phenyl)-5-[(1-methyl-4-piperidyl)oxy]isoquinolin-3-amine] | 59.1 | 0.0539 | > 100 | 0.66 | 0.915 | 134 |
| CC(=O)NC1CCN(c2cc(-c3c(C)cccc3F)cc3cnc(N)cc23)CC1 [Example 114, N-[1-[3-amino-7-(2-fluoro-6-methyl-phenyl)-5-isoquinolyl]-4-piperidyl]acetamide] | 16.4 | 0.617 | > 1000 | 12 | 20.3 | 1600 |
| Cc1cccc(F)c1-c1cc(NC2CCNCC2)c2nc(N)ncc2c1 [Example 124, 6-(2-fluoro-6-methyl-phenyl)-N8-(4-piperidyl)quinazoline-2,8-diamine] | 6.13 | 0.0472 | 48.6 | 0.338 | 0.354 | 17.1 |
| Cc1cccc(F)c1-c1cc(NC(=O)C2CNC2)c2cc(N)ncc2c1 [Example 45, N-[3-amino-7-(2-fluoro-6-methyl-phenyl)-5-isoquinolyl] azetidine-3-carboxamide] | 84 | 5.48 | 924 | 17.8 | 35.4 | 883 |
| Cc1cccc(F)c1-c1cc(N[C@H]2CCCCNC2)c2cc(N)ncc2c1 [Example 23, N5-[(3S)-azepan-3-yl]-7-(2-fluoro-6-methyl-phenyl)isoquinoline-3,5-diamine] | 3.75 | 0.0488 | 24.6 | 0.287 | 0.171 | 15.9 |
| Cc1cccc(F)c1-c1cc(NC2CCNCC2)c2cc(N)ncc2c1 [Example 1, 7-(2-Fluoro-6-methyl-phenyl)-N5-(4-piperidyl)isoquinoline-3,5-diamine] | 16.3 | 0.0518 | 122 | 0.364 | 0.352 | 153 |
